The subject of test [1] is perfused heart. The following applies: cited from earlier work.
Test [2] has as its system patients with acute myocardial infarction. As to the kind of experiment: Multicentre double-blind placebo-controlled randomised clinical trial of L-carnitine on mortality (Example 1). Format: in vivo, human. How it is done: A clinical trial was conducted in order to evaluate the effect of the administration of L-carnitine on the incidence of mortality and heart failure in the short and long term in patients with acute myocardial infarction. The acute myocardial infarction has not localized within a specific region of the organ but it could be located anywhere in the heart. The trial design was that of a multicentre, parallel-group, double-blind, placebo-controlled, randomised trial.
A total of 2,296 male and female patients aged below 80 years were recruited. The study compound, L-carnitine, was administered at a dose of 9 g/day i.v. for the first 5 days and 4 g/day by mouth from day 6 to day 180.
Concomitant therapies were given according to the procedures adopted in local clinical practice.
The efficacy endpoints of the trial consisted in the reduction of mortality and heart failure.
• Typical chest pain lasting>30 minutes, not resolved by the oral or intravenous administration of nitrates; • ECG with ST segment deviation≧0.2 mV in D, and aVL and/or in two or more contiguous precordial leads; • Time interval elapsing from onset of symptoms to trial randomisation<12 hours; • Age<80 years; • Written informed consent.
• Pregnancy or breast-feeding; • Haemodynamically significant valvulopathy; • Hypertrophic or dilated cardiomyopathy; • Congenital heart disease; • Clinically severe liver or kidney disease; • Alcohol abuse; • Other diseases associated with a poor life expectancy; • Conditions making poor compliance with treatment and/or periodic visits likely; • Inclusion in another trial.

Test [3] relates to acute myocardial infarction. The following applies: 40 mg/kg/day (2.8 g/day); cited from earlier work.
The test system of test [4] is patients with acute myocardial infarction. The following applies: 3 grams every 8 hours (9 grams a day) intravenous for 48 hours; symptoms within 8 hours; 351 patients; cited from earlier work.
The test system of test [5] is patients affected by anterior acute myocardial infarction. The following applies: cited from earlier work.
Test [6] concerns cardiac ischaemia. The following applies: dogs, cardiac ischaemia model; cited from earlier work.

For `C[N+](C)(C)C[C@H](O)CC(=O)[O-].O=C(O)/C=C/C(=O)O` [L-carnitine fumarate], in test [1], the lactate levels result is recorded as “lower lactate levels”, the “postischemic cardiac contraction amplitude” value is listed as “greater”, the “release of LDH” value is given as “reduced release of LDH” and the “reserve of high-energy phosphate” value is recorded as “higher reserve of high-energy phosphate”. Also, in test [1] (postischemic), the coronary flow result was “greater”.
As for `C[N+](C)(C)C[C@H](O)CC(=O)[O-]` [L-carnitine], the “NUMBER OF DEATHS AT: 1 mos” value in test [2] (9 g/day i.v. first 5 days, 4 g/day by mouth day 6 to 180, at 1 mos) is 45. For the same compound, the “NUMBER OF DEATHS AT: 2 mos” value in test [2] (9 g/day i.v. first 5 days, 4 g/day by mouth day 6 to 180, at 2 mos) was 53. The “NUMBER OF DEATHS AT: 6 mos” value in test [2] (9 g/day i.v. first 5 days, 4 g/day by mouth day 6 to 180, at 6 mos) is recorded as 64. In test [2] (9 g/day i.v. first 5 days, 4 g/day by mouth day 6 to 180, at 12 mos), the “NUMBER OF DEATHS AT: 12 mos” value was found to be 67. In addition, in test [2] (L-carnitine vs placebo, at 1 mos), the “RR (Relative Risk) of death at 1 mos” value is given as 0.78. Moreover, the “RR (Relative Risk) of death at 2 mos” value in test [2] (L-carnitine vs placebo, at 2 mos) turned out to be 0.81. In addition, the “RR (Relative Risk) of death at 6 mos” value in test [2] (L-carnitine vs placebo, at 6 mos) stood at 0.86. Further, in test [2] (L-carnitine vs placebo, at 12 mos), the “RR (Relative Risk) of death at 12 mos” value was found to be 0.89. For the same compound, in test [2] (vs placebo, 3 and 7 days, 1, 2, 6, 12 mos), the “reduction in deaths at the other observation times” value was “significant reductions”. The “reduction in deaths after 5 days' treatment” value in test [2] (vs placebo, after 5 days' treatment (P<0.05)) is recorded as “statistically significant reduction in deaths”. In test [3], the “difference between patients treated within 4 hours and more than 4 hours after onset of infarct symptoms” value is recorded as “no significant difference”. Further, the “mortality vs control group at 7 days after the start of treatment” value in test [4] is listed as “no significant difference”. Also, in test [5] (anterior acute myocardial infarction), the “left ventricular dilation in the first year after infarction” value is given as “significant attenuation of left ventricular dilation”. For the same compound, the “deaths during the hospitalisation period” value in test [5] (treated group, L-carnitine within 24 hours from onset of chest pain, 14 in control group, 472 patients in total) is 11. Moreover, the cardiac lipid metabolism result in test [6] is recorded as “active in improving cardiac lipid metabolism”.
